2 molecules from patent publication US20060240057A1, “Termiticide compositions” (priority 2003, published 2006) can be followed below.

For data set [1], the system named is termites (Reticulitermes flavipes). Nature of the data set: Termite mortality by direct application (track sprayer) of combinations of bifenthrin and acetamiprid to termites. The conditions noted are these: for mortality at 10 ppm / mortality at 50 ppm / mortality at 100 ppm / mortality at 200 ppm: Reticulitermes flavipes, read-out: Percent Mortality. Format: in vivo. As for the experimental part: (§1) Test compositions made up of Talstar® Termiticide/Insecticide and a 70% wettable powder of acetamiprid in distilled water were prepared that provided appropriate rates of application of combinations of bifenthrin and acetamiprid, as well as bifenthrin and acetamiprid alone.
Solutions of the test materials were applied directly to 50 termites (Reticulitermes flavipes) per petri plate using a track sprayer calibrated to deliver 1.2 ml per petri plate at 40 psi. After application, petri dishes with treated termites were inverted onto fresh petri plates containing dry filter paper. After all applications were completed, termites were then transferred to petri dishes containing moist soil with cardboard as a food source. Expired termites were removed at each reading. At 0 hours, 1 hour, 2 hours, 1 day, and 2 days after treatment (HAT or DAT, respectively), termite mortality was measured. The following calculation determined whether the combination treatments provided enhanced activity over what would be expected based on the activity of each active ingredient separately: [formula]
A and B refer to the two separate treatments of two different active ingredients at specific rates.

For data set [2], the system named is termite (Reticulitermes flavipes) workers. Kind of data set: Termite mortality by soil applications of combinations of bifenthrin and acetamiprid (soil column in glass tube). Format: in vivo. The conditions noted are these: soil application, read-out: Percent Mortality; for mortality at 60 ppm: Bifenthrin @ 60 ppm; for mortality at 500 ppm: Acetamiprid @ 500 ppm. The protocol: as §1
Glass tubing, 13 mm in diameter, was then cut into 20 cm sections in sufficient quantity to conduct the test. Each […] section of tubing was marked at 5 cm, 8 cm, and 18 cm distances from one end of the tube designated as the bottom. Each section of tubing was packed with a sandy soil (3% wt/wt moisture content) by first placing a section of a 1 cm diameter wooden dowel into the bottom of the glass tube up to the 8 cm marking, then introducing approximately 2 cm of soil into the other end of the tube designated as the top. The soil was then gently packed into the tube from the top using a second section of the 1 cm diameter wooden dowel. The process was repeated using 2 cm aliquots of soil until the soil level was adjacent to the 18 cm marking, thereby providing a column of soil 10 cm in height. An agar plug, which was formed in a section of the 13 mm diameter glass tubing of the type used to conduct these tests, was cut into 3 cm sections. A 3 cm section of agar was then gently pushed into the bottom of each tube containing the soil until the agar plug firmly touched the soil at the 8 cm marking, thereby creating a 5 cm void in the bottom of each section of tubing. Following placement of the agar plugs in each section of tubing; two sections of applicator sticks cut in 6 cm lengths were inserted into the bottom end of each tube thereby forcing about 1 cm of each stick into the agar plug to hold the agar plug in place. Plastic caps, with an inside diameter of 13 mm and holes drilled in their centers, were placed on the bottom ends of each of the sections of tubing. A sharpened applicator stick was then inserted into the hole in each plastic cap through the agar plug to the intersection of the agar plug and the soil. The applicator stick was then gently removed in a rotating manner to provide a means for a free flow of liquid through the soil. Each section of tubing was then stood upright, and 0.5 niL aliquots of each suspension of bifenthrin, acetamiprid or combinations thereof, as prepared above, were pipetted onto the top of the soil. Upon application of the test suspensions the top of each section of tubing was covered with a small piece of aluminum foil. The tubes were then allowed to stand for about 20 hours to allow movement of the termiticide(s) downward into the soil. After this time a plastic cap of 13 mm inside diameter was placed on the top of each section of tubing. The plastic caps with the holes drilled in their centers were removed from the bottom of each section of tubing, and a piece of 0.5 cm×4 cm filter paper was then placed between the two sections of applicator sticks. Fifty termite (Reticulitermes flavipes) workers were then inserted into the 5 cm void in the bottom of each section of tubing. New plastic caps without holes drilled in their centers were placed on the bottom of each section of tubing. The sections of tubing were then stored in an upright position, with the termites located below the soil. At 1, 3, 6, 8, 10, 13, 15, 17, 20, and 22 days after treatment (DAT), termite mortality was measured.

Molecules are shown by their SMILES. Like-named read-outs stand apart in the source and are kept apart here.

In general, mortality refers to the percentage killed. Regarding `Cc1c(COC(=O)[C@@H]2[C@H](/C=C(\Cl)C(F)(F)F)C2(C)C)cccc1-c1ccccc1` (racemic) [Bifenthrin, bifenthrin], the “Percent Mortality” value in data set [1] (Bifenthrin @ 10 ppm, 1 HAT) is given as 0%; in data set [1] (Bifenthrin @ 10 ppm, 2 HAT) it was 0%; in data set [1] (Bifenthrin @ 50 ppm, 1 HAT) it was 0%; in data set [1] (Bifenthrin @ 50 ppm, 2 HAT) it was 0%. Besides, the mortality at 10 ppm in data set [1] (24 h, Bifenthrin @ 10 ppm, 1 DAT) is 11%; in data set [1] (48 h, Bifenthrin @ 10 ppm, 2 DAT), 26%; in data set [1] (Bifenthrin @ 10 ppm, 0 HAT), 0%. In addition, the mortality at 50 ppm in data set [1] (24 h, Bifenthrin @ 50 ppm, 1 DAT) worked out at 63%; in data set [1] (48 h, Bifenthrin @ 50 ppm, 2 DAT), 96%; in data set [1] (Bifenthrin @ 50 ppm, 0 HAT) it was 0%. Also, the mortality at 60 ppm in data set [2] (24 h, 1 DAT) came out at 6%; in data set [2] (72 h, 3 DAT), 6%; in data set [2] (144 h, 6 DAT), 11%; in data set [2] (192 h, 8 DAT), 13%; in data set [2] (240 h, 10 DAT), 13%; in data set [2] (312 h, 13 DAT), 13%. The mortality at 60 ppm in data set [2] (360 h, 15 DAT) came to 16%; in data set [2] (408 h, 17 DAT), 16%; in data set [2] (480 h, 20 DAT) it was 16%; in data set [2] (528 h, 22 DAT), 16%.

For the molecule `C/C(=N\C#N)N(C)Cc1ccc(Cl)nc1` [Acetamiprid, acetamiprid], the “Percent Mortality” value in data set [1] (Acetamiprid @ 100 ppm, 1 HAT) was found to be 0%; in data set [1] (Acetamiprid @ 100 ppm, 2 HAT) it was 0%; in data set [1] (Acetamiprid @ 200 ppm, 1 HAT), 0%; in data set [1] (Acetamiprid @ 200 ppm, 2 HAT) it was 0%. In addition, the mortality at 100 ppm came out at 16% in data set [1] (24 h, Acetamiprid @ 100 ppm, 1 DAT); 78% in data set [1] (48 h, Acetamiprid @ 100 ppm, 2 DAT); 0% in data set [1] (Acetamiprid @ 100 ppm, 0 HAT). In addition, the mortality at 200 ppm in data set [1] (24 h, Acetamiprid @ 200 ppm, 1 DAT) stood at 35%; in data set [1] (48 h, Acetamiprid @ 200 ppm, 2 DAT), 88%; in data set [1] (Acetamiprid @ 200 ppm, 0 HAT), 0%. The mortality at 500 ppm in data set [2] (24 h, 1 DAT) stood at 5%; in data set [2] (72 h, 3 DAT), 84%; in data set [2] (144 h, 6 DAT) it was 100%; in data set [2] (192 h, 8 DAT), 100%; in data set [2] (240 h, 10 DAT) it was 100%; in data set [2] (312 h, 13 DAT) it was 100%. For the same molecule, the mortality at 500 ppm in data set [2] (360 h, 15 DAT) is 100%; in data set [2] (408 h, 17 DAT), 100%; in data set [2] (480 h, 20 DAT), 100%; in data set [2] (528 h, 22 DAT), 100%.
